Reference: patent publication US11207312B2, “Metallo-beta-lactamase inhibitors and methods of use thereof” (priority 2017, dated 2021)

Assays:
[1] = system: P. aeruginosa MB9799 (efflux-, IMP-1 plasmid); format: cell-based, Pseudomonas aeruginosa; details: efflux − (MB9799) strain; imipenem at 2 μg/mL; in the presence of a class A, C, D serine β-lactamase inhibitor closely related to relebactam
How it was run: (§1)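 PAO1-derived isogenic pair (oprD+, inducible AmpC), efflux+ MB5919 or efflux− MB5890 parent, carrying an electroporated IMP-1 plasmid from a clinical isolate. Microbroth MIC with fixed imipenem and/or ceftazidime (usually CLSI breakpoint) plus fixed class A/C inhibitor; MBL inhibitor serially titrated, concentration restoring susceptibility recorded.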

VIM-1 = VIM-1 (Pseudomonas aeruginosa (strain ATCC 15692 / DSM 22644 / CIP 104116 / JCM 14847 / LMG 12228 / 1C / PRS 101 / PAO1), UniProt A0A0F7KYQ8); experiment: biochemical; details: CCF2-FA fluorescence assay, 2 hours at 25° C.; read-out: VIM1 IC50
How it was run: (§2)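 IC50s come from 4-parameter fits of inhibition versus inhibitor concentration, tested from 20 μM down to 0.00063 μM. Enzyme, CCF2-FA (1.25 μM) and inhibitor react 2 h at 25° C, pH 7, with 10 μM ZnSO4 and 0.005% Tween-20.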

IMP-1 = IMP-1 (Serratia marcescens, UniProt P52699); experiment: biochemical; details: CCF2-FA fluorescence assay, 2 hours at 25° C.; read-out: IMP1 IC50
Sequence of IMP-1 (P52699 whole entry, looked up, species assumed): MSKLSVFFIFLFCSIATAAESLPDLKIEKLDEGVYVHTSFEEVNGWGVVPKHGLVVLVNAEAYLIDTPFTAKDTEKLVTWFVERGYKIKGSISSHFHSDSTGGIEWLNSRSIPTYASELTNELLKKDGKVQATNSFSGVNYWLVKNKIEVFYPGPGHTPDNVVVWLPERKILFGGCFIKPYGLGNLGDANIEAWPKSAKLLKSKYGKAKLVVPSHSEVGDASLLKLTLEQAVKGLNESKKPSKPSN
How it was run: as §2

[2] = system: P. aeruginosa MB9798 (efflux+, IMP-1 plasmid); details: for MB9798 MITC95 P. aeruginosa uM Efflux WT: efflux + (MB9798) strain, imipenem at 2 μg/mL, in the presence of a class A, C, D serine β-lactamase inhibitor closely related to relebactam; for Efflux ratio: fold difference between efflux+ (MB9798) and efflux− (MB9799) strains
How it was run: as §1

NDM-1 = NDM-1 (Klebsiella pneumoniae, UniProt C7C422); experiment: biochemical; format: biochemical; details: CCF2-FA fluorescence assay, 2 hours at 25° C.
Sequence of NDM-1 (C7C422 whole entry, looked up, species assumed): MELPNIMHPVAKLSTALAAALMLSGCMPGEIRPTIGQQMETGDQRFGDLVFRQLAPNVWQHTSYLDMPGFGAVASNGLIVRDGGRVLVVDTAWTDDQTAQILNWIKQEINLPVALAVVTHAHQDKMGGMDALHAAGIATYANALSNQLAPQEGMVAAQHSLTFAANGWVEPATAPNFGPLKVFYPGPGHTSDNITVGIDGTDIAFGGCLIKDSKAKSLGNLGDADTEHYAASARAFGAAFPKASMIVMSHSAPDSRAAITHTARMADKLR
How it was run: as §2

[3] = system: Klebsiella pneumoniae expressing VIM-1 (IHMA599644); format: cell-based; details: with imipenem 1 μg/ml; 95% inhibition of bacterial growth
How it was run: (§3)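 MITC95 denotes the minimal test-compound level that, combined with 1 μg/ml imipenem, blocks 95% of bacterial growth, measured by absorbance. Overnight-grown clinical isolates were diluted 1:100 in CAMHB and incubated with both agents at 35° C for 22–24 h.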

[4] = system: Escherichia coli expressing NDM-1 (CLB30016); format: cell-based; details: with imipenem 1 μg/ml; 95% inhibition of bacterial growth
How it was run: as §3

[5] = system: Serratia marcescens expressing IMP-1 (CL5741); format: cell-based; details: with imipenem 1 μg/ml; 95% inhibition of bacterial growth
How it was run: as §3

VIM-2 = VIM-2 (Escherichia coli, UniProt Q5U7L7); experiment: biochemical; details: CCF2-FA fluorescence assay; read-out: VIM2 IC50

SMILES	MB9799 MITC95 P. aeruginosa uM Efflux Mutant [1]	IC50 (VIM-1)	IC50 (IMP-1)	MB9798 MITC95 P. aeruginosa uM Efflux WT [2]	Efflux ratio [2]	IC50 (NDM-1)	IHMA599644 K. pneumoniae MITC95 VIM [3]	CLB30016 E. coli MITC95 NDM [4]	CL5741 S. marcescens MITC95 IMP [5]	IC50 (VIM-2)
NC[C@@H](O)CNS(=O)(=O)c1ccc(N2CCC[C@@H](CN)C2)c(-c2nnn[nH]2)c1S(N)(=O)=O [Example 38, N1-((R)-3-amino-2-hydroxypropyl)-4-((S)-3-(aminomethyl)piperidin-1-yl)-3-(1H-tetrazol-5-yl)benzene-1,2-disulfonamide]	0.78 µM	0.67 nM	20.6 nM	3.13 µM	4.00	6.3 nM	0.78 µM	0.20 µM	0.78 µM	2.11 nM
NC[C@@H](O)CNS(=O)(=O)c1ccc(N2CCC[C@H](CN)C2)c(-c2nnn[nH]2)c1S(N)(=O)=O [Example 39, N1-((R)-3-amino-2-hydroxypropyl)-4-((R)-3-(aminomethyl)piperidin-1-yl)-3-(1H-tetrazol-5-yl)benzene-1,2-disulfonamide]	1.56 µM	1.71 nM	44.6 nM	3.13 µM	2.00	50.4 nM	1.56 µM	1.56 µM	0.78 µM	11.6 nM
NC[C@@H](O)CNS(=O)(=O)c1ccc(N2CCN(CCCO)CC2)c(-c2nnn[nH]2)c1S(N)(=O)=O [Example 40, (R)-N1-(3-amino-2-hydroxypropyl)-4-(4-(3-hydroxypropyl)piperazin-1-yl)-3-(1H-tetrazol-5-yl)benzene-1,2-disulfonamide]	0.78 µM	5.87 nM	3.56 nM	1.56 µM	2.00	3.07 nM	0.78 µM	0.05 µM	0.10 µM	7.36 nM
NCCNS(=O)(=O)c1ccc(N2CCN(CCCO)CC2)c(-c2nnn[nH]2)c1S(N)(=O)=O [Example 41, N1-(2-aminoethyl)-4-(4-(3-hydroxypropyl)piperazin-1-yl)-3-(1H-tetrazol-5-yl)benzene-1,2-disulfonamide]	0.39 µM	11.5 nM	6.04 nM	1.56 µM	4.00	5.98 nM	1.56 µM	0.10 µM	0.10 µM	14.8 nM
NC[C@@H](O)CNS(=O)(=O)c1ccc(N2CCC(CO)CC2)c(-c2nnn[nH]2)c1S(N)(=O)=O [Example 42, (R)-N1-(3-amino-2-hydroxypropyl)-4-(4-(hydroxymethyl)piperidin-1-yl)-3-(1H-tetrazol-5-yl)benzene-1,2-disulfonamide]	1.56 µM	0.16 nM	0.47 nM	1.56 µM	1.00	0.45 nM	6.25 µM	3.13 µM	3.13 µM	0.71 nM
NCCNS(=O)(=O)c1ccc(N2CCC(CO)CC2)c(-c2nnn[nH]2)c1S(N)(=O)=O [Example 43, N1-(2-aminoethyl)-4-(4-(hydroxymethyl)piperidin-1-yl)-3-(1H-tetrazol-5-yl)benzene-1,2-disulfonamide]	1.56 µM	0.19 nM	0.58 nM	1.56 µM	1.00	0.51 nM	6.25 µM	1.56 µM	1.56 µM	0.61 nM
NC[C@H](N)CNS(=O)(=O)c1ccc(N2CCC(CO)CC2)c(-c2nnn[nH]2)c1S(N)(=O)=O [Example 44, (S)-N1-(2,3-diaminopropyl)-4-(4-(hydroxymethyl)piperidin-1-yl)-3-(1H-tetrazol-5-yl)benzene-1,2-disulfonamide]	1.56 µM	0.06 nM	0.56 nM	3.13 µM	2.00	0.36 nM	6.25 µM	3.13 µM	3.13 µM	0.63 nM
NCC(CN)NS(=O)(=O)c1ccc(N2CCC(CO)CC2)c(-c2nnn[nH]2)c1S(N)(=O)=O [Example 45, N1-(1,3-diaminopropan-2-yl)-4-(4-(hydroxymethyl)piperidin-1-yl)-3-(1H-tetrazol-5-yl)benzene-1,2-disulfonamide]	1.56 µM	0.23 nM	0.52 nM	1.56 µM	1.00	0.27 nM	3.13 µM	1.56 µM	3.13 µM	0.74 nM
C[C@H](CN)NS(=O)(=O)c1ccc(N2CCC(CO)CC2)c(-c2nnn[nH]2)c1S(N)(=O)=O [Example 46, (R)-N1-(1-aminopropan-2-yl)-4-(4-(hydroxymethyl)piperidin-1-yl)-3-(1H-tetrazol-5-yl)benzene-1,2-disulfonamide]	1.56 µM	0.08 nM	0.12 nM	1.56 µM	1.00	0.06 nM	6.25 µM	3.13 µM	1.56 µM	0.32 nM
NC[C@@H](O)CNS(=O)(=O)c1ccc(N2CCN(CCO)CC2)c(-c2nnn[nH]2)c1S(N)(=O)=O [Example 47, (R)-N1-(3-amino-2-hydroxypropyl)-4-(4-(2-hydroxyethyl)piper-azin-1-yl)-3-(1H-tetrazol-5-yl)benzene-1,2-disulfonamide]	0.78 µM	5.02 nM	4.57 nM	1.56 µM	2.00	3.94 nM	0.78 µM	0.10 µM	0.10 µM	7.34 nM
NCCNS(=O)(=O)c1ccc(N2CCN(CCO)CC2)c(-c2nnn[nH]2)c1S(N)(=O)=O [Example 48, N1-(2-aminoethyl)-4-(4-(2-hydroxyethyl)piper-azin-1-yl)-3-(1H-tetrazol-5-yl)benzene-1,2-disulfonamide]	0.39 µM	7.23 nM	5.59 nM	1.56 µM	4.00	1.52 nM	0.39 µM	0.05 µM	0.05 µM	15 nM
NC[C@H](N)CNS(=O)(=O)c1ccc(N2CCN(CCO)CC2)c(-c2nnn[nH]2)c1S(N)(=O)=O [Example 49, (S)-N1-(2,3-diaminopropyl)-4-(4-(2-hydroxyethyl)piper-azin-1-yl)-3-(1H-tetrazol-5-yl)benzene-1,2-disulfonamide]	1.56 µM	13.6 nM	9.13 nM	1.56 µM	1.00	5.3 nM	1.56 µM	0.20 µM	0.20 µM	20.2 nM
CC(N)C1CCN(c2ccc(S(=O)(=O)NC[C@H](O)CN)c(S(N)(=O)=O)c2-c2nnn[nH]2)CC1 (stereo partly drawn) [Example 50, N1-((R)-3-amino-2-hydroxypropyl)-4-(4-(1-aminoethyl)piper-idin-1-yl)-3-(1H-tetrazol-5-yl)benzene-1,2-disulfonamide]	0.39 µM	0.15 nM	2.11 nM	0.78 µM	2.00	4.14 nM	0.78 µM	0.39 µM	0.78 µM	4.12 nM
